Results published in the pKa sets of Baltruschat and Czodrowski (2020).

Settings: acidic group

| SMILES | pKa |
| --- | --- |
| CC(C)Nc1ncnc2[nH]ncc12 | 11 |
| [O-][n+]1cnc(NCc2ccccc2)c2nc[nH]c21 | 7.27 |
| C[C@@H]1CCC[C@H](C(=O)O)C1 | 4.88 |
| CCNC(=O)CS | 8.14 |
| C[Si](C)(CCl)CCCC(=O)O | 4.97 |
| C[Si](C)(C)C#CC(=O)O | 2.21 |
| C[C@@H]([NH3+])C(=O)N1CCC[C@H]1C(=O)O | 3.04 |
| CC1SC(C)(C(=O)O)OC1=O (stereo not given) | 1.94 |
| N/C(=N\O)c1ncnc2nc[nH]c12 | 9.4 |
| O=c1cc(S(=O)(=O)[O-])[nH]c(=O)[nH]1 | 7.26 |
| Oc1cnoc1 | 7.75 |
| Cc1ccc(C)c(NN=C(C#N)C#N)c1 | 6.75 |
| O=C(O)C[C@@H]1NC(=O)CNC1=O | 3.93 |
| Oc1ccc2c(c1)CCC2 | 10.3 |
| Cn1cc([NH3+])cc1C(=O)O | 3.5 |
| CN(C)/C=N/c1cccc(O)c1 | 10.2 |
| Oc1cccc2nccnc12 | 8.8 |
| Oc1ccc(-c2cc(=S)ss2)cc1 | 7.86 |
| O=C(O)c1cc(Cl)co1 | 2.69 |
| [NH3+]CCNC(=S)S | 2 |
| Cc1cccc(C(=O)O)[nH+]1 | 0.9 |
| Cc1cc(Br)cc(Br)c1O | 7.6 |
| O=C(O)CC1CCCCC1 | 4.8 |
| CC(C)(C)C(=O)C(=O)O | 2.3 |
| Cc1ccc(C(=O)Oc2ccccc2)c(O)c1 | 9.44 |

| SMILES | pKa |
| --- | --- |
| c1ncc2[nH]nnc2n1 | 4.88 |
| C/C(=N\O)c1ccccc1 | 11.3 |
| Cc1cc(C2(c3ccc(O)c(C)c3)OS(=O)(=O)c3c(Br)c(Br)c(Br)c(Br)c32)ccc1O | 7.53 |
| Nc1ccc(O)c2ncccc12 | 11.2 |
| CCOc1cccc(C)c1C(=O)O | 3.51 |
| COc1ccccc1/C=C/C=N/O | 10.8 |
| [NH3+]c1cccc(O[C@H]2O[C@@H](C(=O)O)[C@H](O)[C@@H](O)[C@@H]2O)c1 | 2.97 |
| c1coc(CSc2ncnc3nc[nH]c23)c1 | 8.42 |
| Cc1ncnc2c(O)cccc12 | 8.75 |
| C[n+]1ccccc1S | -1.42 |
| CC(C)CP(=O)(O)CC(C)C | 3.25 |
| CN(C)c1ccc(C(=O)O)cc1 | 4.96 |
| O=C(O)c1cccc([N+](=O)[O-])c1O | 2.16 |
| CCC1(CC)C(=O)NC(=O)N(C(=O)c2ccccc2OC)C1=O | 6.54 |
| O=C1/C(=N\O)C=C(S(=O)(=O)[O-])c2cn[nH]c21 | 6.35 |
| [NH3+]CCCCCCC#CC#CCCC(=O)O | 4.21 |
| C/C=C/C=C/C(=O)O | 4.53 |
| CC/C=C/CC1=[NH+]C(C(=O)O)[C@@H]2SC(C)(C)C(C(=O)O)N12 (stereo not given in full) | 2.4 |
| CC(=O)C(C)C(=O)c1ccccc1 (stereo not given) | 11.1 |
| Cn1c(CO)nc2ccccc21 | 15.8 |
| Cc1cc(C)c2c(O)c(CC(=O)O)oc2c1 | 4.75 |
| CCOc1cc(C)nc(-n2nc(C)cc2O)n1 | 7.35 |
| Cn1cnc2c(O)[nH+]cnc21 | 1.86 |
| O=C(O)c1cccc([N+](=O)[O-])c1Cl | 2.02 |
| CCCCCCCCc1c(-c2ccccc2)nn(-c2ccccc2)c1O | 7.5 |

| SMILES | pKa |
| --- | --- |
| Cc1ncc(CO)c(C[NH3+])c1O | 8.02 |
| CCCc1ncnc2c(O)cccc12 | 8.82 |
| C/C(O)=N\[N+](C)(C)C | 5.42 |
| O=C(O)c1ccc[n+]([O-])c1 | 2.95 |
| COCC1=C(C(=O)O)C2C=CC1C2 (stereo not given) | 4.59 |
| C[N+](C)(C)Cc1cccc(O)c1O | 8.1 |
| Cc1ccc(O)c(Cc2cc([N+](=O)[O-])ccc2[O-])c1 | 11.5 |
| Cc1cc(C(N)=O)cc(C)[n+]1O | 2.08 |
| C[NH+](C)CCc1ccccc1O | 8.75 |
| Sc1ccc2ccccc2[nH+]1 | -1.44 |
| O=C(O)C[N+](=O)[O-] | 1.63 |
| O=[PH]([O-])C(NCc1ccccn1)c1ccccc1O (stereo not given) | 12 |
| Oc1cc2cccnc2c2cccnc12 | 8.5 |
| CC1(C)OC(=O)CC(=O)O1 | 5.15 |
| Cc1ccc(NC(=S)c2ccccc2)cc1 | 10.8 |
| O=C([O-])c1ccc(NS(=O)(=O)c2ccccc2)cc1 | 7.75 |
| CC(C)(/C=C/C(=O)[O-])c1cc(Br)ccc1O | 10 |
| Cc1cnc(NS(=O)(=O)c2ccc(N)cc2)nc1C | 6 |
| ONc1cc[n+](O)c2ccccc12 | 3.89 |
| [NH3+]c1ccc(CC(=O)O)cc1 | 3.49 |
| CC1(C)OC(=O)NC1=O | 6.15 |
| O=c1cnn([C@H]2O[C@@H](CO)[C@H](O)[C@@H]2O)c(=O)[nH]1 | 6.6 |
| Cc1cc(C)c(O)c([N+](=O)[O-])c1 | 7.98 |
| Oc1ccccc1-c1ccccn1 | 10.6 |
| C[NH+]1CSC[C@H]1C(=O)O | 1.51 |

Same assay, conditions: basic group

| SMILES | pKa |
| --- | --- |
| CC(C)Nc1ncnc2[nH]ncc12 | 4.62 |
| [O-][n+]1cnc(NCc2ccccc2)c2nc[nH]c21 | 2.86 |
| CN1CC[C@]23c4c5ccc(OCc6ccccc6)c4O[C@H]2[C@@H](O)C=C[C@H]3[C@H]1C5 | 8.07 |
| Nc1ccc2cncnc2c1 | 4.6 |
| Cc1cc2c(cc1N)Sc1cc(N(C)C)ccc1N2 | 5.41 |
| CSC(=N)Nc1ccccc1 | 7.14 |
| CN(C)Cc1cc(Br)ccc1[O-] | 10.7 |
| CC[NH+](CC)CCCNc1ccnc2ccccc12 | 8.65 |
| CC[NH+](CC)CCCC(C)Nc1cc(OC)cc2cccnc12 (stereo not given) | 3.63 |
| CC(C)Nc1ncnc2c1cnn2C | 4.22 |
| COC(=N)N | 9.72 |
| COc1cc(S(C)=O)ccc1-c1cn2cccnc2n1 (stereo not given) | 3.7 |
| C[Si](C)(C)OC1CN(Cc2ccc(F)cc2)C1 | 7.91 |
| CNC(=S)c1ccccc1 | -2.5 |
| c1ccc(CNC23OC4C5C6CC(C7C6C4C72)C53)cc1 (stereo not given) | 7.07 |
| CCN(C)C | 10.1 |
| c1ncc(Cc2cnc[nH]2)[nH]1 | 7.63 |
| Cc1ccc(C)c(NN=C(C#N)C#N)c1 | -0.84 |
| COc1ccc2ccccc2n1 | 3.17 |
| Cn1c(=O)c2c(ncn2CC(=O)[O-])n(C)c1=O | 4.48 |
| C#CCN(CC#C)CC#C | 3.04 |
| C[C@H]([NH3+])[C@@H](C)N | 6.84 |
| CN(C)/C=N/c1cccc(O)c1 | 7.88 |
| Cc1cc2c(cc1N)Sc1cc([NH+](C)C)ccc1N2 | 4.81 |
| COC(=O)[C@@H]1[C@@H](O)C[C@H]2CC[C@@H]1N2C | 8.21 |
| C1OC1CN(CC1CO1)CC1CO1 (stereo not given) | 5.01 |
| Oc1cccc2nccnc12 | 0.85 |

| SMILES | pKa |
| --- | --- |
| NCCCCOc1c2ccccc2cc2ccccc12 | 9.94 |
| CS[C@H]1CCC[C@@H]1N(C)C | 8.85 |
| CCN1CC1 | 7.91 |
| CSc1ccc(N)cc1[N+](=O)[O-] | 2.47 |
| CC(=O)OCC1CC2CCN1CC2 (stereo not given) | 9.88 |
| [NH3+][C@@H](Cc1c[nH]cn1)C(=O)N[C@@H](Cc1c[nH]c[nH+]1)C(=O)[O-] | 5.6 |
| Cc1cc(=O)n(C)n1-c1ccccc1 | 2.4 |
| Nc1ccc(O)c2ncccc12 | 5.67 |
| CCCCN1CCCCC1C(=O)Nc1c(C)cccc1C (stereo not given) | 7.27 |
| COc1ccc([N+](=O)[O-])c(CN)c1 | 8.72 |
| c1ccc(-c2cnc(-c3ccccc3)o2)cc1 | 0.84 |
| Cc1ncnc2c(O)cccc12 | 2.9 |
| CCN(CC)CCCN(CC)CC | 10.2 |
| Cc1c(N)ccc2c1-c1c(ccc3ccccc13)C2 | 4.49 |
| CC(C)(C)CN | 10.2 |
| CN(C)c1ccc(C(=O)O)cc1 | 2.57 |
| Fc1ccccn1 | -0.44 |
| Cc1cc(O)n(-c2nc(C)c(C)c([O-])n2)n1 | 10.3 |
| C[C@H](N)[C@H](C)[NH3+] | 6.79 |
| COc1ccc(-c2ncc(-c3ccc([NH3+])cc3)o2)cc1 | 0.85 |
| C(=C\c1ccncc1)/c1ccncc1 | 5.82 |
| CC(O)c1ccccc1 (stereo not given) | -7 |
| CCOC(=O)c1cnc2ccccc2c1[O-] | 9.62 |
| CCC(C)[C@H](N)C(=O)[O-] (stereo not given in full) | 9.62 |
| CCCCSC1=NCCN1 | 9 |
| Cn1c(CO)nc2ccccc21 | 4.36 |
| N[C@@H]1C[C@@H]2CCCC[C@H]2C[C@@H]1N | 9.93 |

| SMILES | pKa |
| --- | --- |
| COc1cncnc1[O-] | 8.6 |
| CNCC#N | 5.26 |
| CC(N)CCCc1ccc(O)cc1 (stereo not given) | 9.4 |
| CN1[C@H]2CC=C(C(=O)[O-])[C@@H]1CC2 | 10.8 |
| O=C(CN1CCOCC1)NCc1ccccc1 | 4.98 |
| Cc1ncc(CO)c(C[NH3+])c1O | 3.38 |
| CC1=C(CC(C)NCC(O)c2ccc(Br)cc2)CCC1(C)C (stereo not given) | 8.57 |
| Nc1cccc(Br)c1 | 3.41 |
| Cc1cccc(N(C)C)c1 | 5.32 |
| CN(C)CCCNC(=O)/C=N/[O-] | 9.78 |
| CC1CN2CCC1CC2 (stereo not given) | 11.3 |
| O=C([O-])C[NH+](CC(=O)[O-])Cc1nc2ccccc2[nH]1 | 3.95 |
| NC(=O)/C=C(\O)c1cccnc1 | 8.01 |
| O=C(O)c1ccc[n+]([O-])c1 | 0.41 |
| CC(C)c1ccccn1 | 5.83 |
| CN[C@H]1C[C@]1(C)[NH2+]C | 5.52 |
| Cc1cccc(N)c1C | 4.56 |
| CCCN(CC(C)O)CC(C)O (stereo not given) | 8.9 |
| CCCN(CC(O)CC)CC(O)CC (stereo not given) | 9 |
| Nc1cnc2ccccc2n1 | 3.93 |
| Nc1ccnc([S-])n1 | 10.6 |
| Cc1cc2cccc(C)c2nc1C | 4.41 |
| Cc1ccc(CN)cc1N | 9.77 |
| Cn1ccc(=O)cc1 | 3.33 |
| N=C(N)Nc1nc(N)nc(N)n1 | 9.4 |
| C=C(C)C(=O)NCCN(CC)CC | 9.37 |
| C1CN2CCCN2C1 | 7.95 |

| SMILES | pKa |
| --- | --- |
| Nc1ccccc1Br | 2.4 |
| Cn1cnc2ncnc([O-])c21 | 8.8 |
| CSc1ccc(N)cc1 | 4.4 |
| CCCCN(CC(C)O)CC(C)O (stereo not given) | 9.3 |
| CNCCC(=O)c1ccccc1 | 9 |
| O=[PH]([O-])C(NCc1ccccn1)c1ccccc1O (stereo not given) | 8.08 |
| Oc1cc2cccnc2c2cccnc12 | 3.9 |
| CC(C)(CN)C[NH3+] | 7.99 |
| NCCCCc1ccncc1 | 10.2 |
| Cc1cc(C(c2ccc(N)cc2)c2ccc(N)cc2)ccc1[NH3+] | 3.8 |
| Nc1ccc(Cc2ccc([NH3+])cc2)cc1 | 4 |
| CN(C)CCC/N=C(\c1ccccc1)c1ccccc1Cl | 9 |
| NCCNCCCO | 9.67 |
| CNc1cnc2ccccc2n1 | 4.1 |
| CCCCCCCCCCN(CCO)CC(O)CC (stereo not given) | 7.2 |
| CNc1cc[n+](C)c([O-])n1 | 4.47 |
| CC1NCCCN1 | 9.09 |
| Nc1cccc2cncnc12 | 2.81 |
| C=C(C)C(=O)OC(C)CN(CC)CC (stereo not given) | 8.65 |
| NC(=O)CC(=O)c1ccccn1 | 8.23 |
| C[C@@H]1CC[C@@H]2CC[C@H](C)N21 | 10.2 |
| CN1CCCC[C@H]1c1cccnc1 | 5.42 |
| Oc1ccccc1-c1ccccn1 | 4.2 |
| C1=C(c2ccco2)C2CCN1CC2 | 8.92 |
